Numbers after ± are expanded uncertainties.
Key:
[1] = 101 kPa, Liquid
[2] = refractive index (Na D-line) (dimensionless); conditions: 101.33 kPa, Liquid, Standard Abbe refractometry
[3] = xn = mol fraction of the nth substance listed; conditions: 101 kPa, Liquid, x2 = 0
[4] = refractive index (Na D-line) (dimensionless); xn = mol fraction of the nth substance listed; conditions: 101 kPa, Liquid, Standard Abbe refractometry, x2 = 0

Compound: CC(O)CN (centres undefined) [1-amino-2-propanol]
- mass density ([1]; 298.15 K): 956.51 ± 0.47 kg/m3
- viscosity ([1]; 298.15 K): 26.68 ± 0.82 mPa·s
- mass density ([1]; 303.15 K): 952.52 ± 0.48 kg/m3
- viscosity ([1]; 303.15 K): 20.31 ± 0.63 mPa·s
- mass density ([1]; 313.15 K): 944.42 ± 0.49 kg/m3
- viscosity ([1]; 313.15 K): 12.51 ± 0.4 mPa·s
- mass density ([1]; 323.15 K): 936.19 ± 0.51 kg/m3
- viscosity ([1]; 323.15 K): 7.543 ± 0.26 mPa·s
- mass density ([1]; 333.15 K): 927.84 ± 0.53 kg/m3
- viscosity ([1]; 333.15 K): 5.22 ± 0.19 mPa·s
- mass density ([1]; 343.15 K): 919.37 ± 0.54 kg/m3
- viscosity ([1]; 343.15 K): 3.77 ± 0.14 mPa·s
- refractive index ([2]; 293.15 K): 1.448 ± 0.00037
- refractive index ([2]; 298.15 K): 1.44609 ± 0.00037
- refractive index ([2]; 303.15 K): 1.44409 ± 0.00037
- refractive index ([2]; 308.15 K): 1.44211 ± 0.00037
- refractive index ([2]; 313.15 K): 1.44009 ± 0.00037
- refractive index ([2]; 318.15 K): 1.43817 ± 0.00037
- refractive index ([2]; 323.15 K): 1.43631 ± 0.00037
- refractive index ([2]; 328.15 K): 1.43405 ± 0.00037
- refractive index ([2]; 333.15 K): 1.43208 ± 0.00037

Compound: O [water] + CC(O)CN
- viscosity ([3]; 298.15 K): 0.882 ± 0.035 mPa·s
- viscosity ([3]; 303.15 K): 0.804 ± 0.032 mPa·s
- viscosity ([3]; 313.15 K): 0.658 ± 0.027 mPa·s
- mass density ([3]; 323.15 K): 988.03 ± 0.26 kg/m3
- viscosity ([3]; 323.15 K): 0.551 ± 0.023 mPa·s
- mass density ([3]; 333.15 K): 983.19 ± 0.27 kg/m3
- viscosity ([3]; 333.15 K): 0.47 ± 0.02 mPa·s
- mass density ([3]; 343.15 K): 977.75 ± 0.29 kg/m3
- viscosity ([3]; 343.15 K): 0.407 ± 0.018 mPa·s
- refractive index ([4]; 293.15 K): 1.33298 ± 0.00033
- refractive index ([4]; 298.15 K): 1.33249 ± 0.00033
- refractive index ([4]; 303.15 K): 1.33193 ± 0.00033
- refractive index ([4]; 308.15 K): 1.33136 ± 0.00033
- refractive index ([4]; 313.15 K): 1.33067 ± 0.00033
- refractive index ([4]; 318.15 K): 1.3299 ± 0.00033
- refractive index ([4]; 323.15 K): 1.32906 ± 0.00033
- refractive index ([4]; 328.15 K): 1.32818 ± 0.00033
- refractive index ([4]; 333.15 K): 1.32726 ± 0.00033
